Laboratory results as given in ChEMBL document CHEMBL3046161, “Synthesis of potential antitubercular and antimicrobial s-triazine-based scaffolds via Suzuki cross-coupling reaction” (2013).
Values after ≈ are worked out from the molar mass of the structure shown.

Key:
Type in all cases: functional
Proteus vulgaris [1] = test: Antibacterial activity against Proteus vulgaris MTCC 1771 assessed as growth inhibition after 24 hr by agar streak dilution method; settings: MTCC 1771, 24 h
[2] = system: Mycobacterium tuberculosis; test: Antimycobacterial activity against Mycobacterium tuberculosis H37Rv assessed as growth inhibition measured within 10 days by BACTEC MGIT method; settings: 240 h
Pseudomonas aeruginosa [3] = test: Antibacterial activity against Pseudomonas aeruginosa MTCC 741 assessed as growth inhibition at 3.12 to 50 ug/mL after 24 hr by agar disk diffusion method
Aspergillus fumigatus [4] = test: Antifungal activity against Aspergillus fumigatus MTCC 343 assessed as growth inhibition at 3.12 to 50 ug/mL after 24 hr by agar disk diffusion method
Aspergillus clavatus [5] = test: Antifungal activity against Aspergillus clavatus MTCC 1323 assessed as growth inhibition at 3.12 to 50 ug/mL after 24 hr by agar disk diffusion method
Salmonella typhi [6] = test: Antibacterial activity against Salmonella enterica subsp. enterica serovar Typhi MTCC 733 assessed as growth inhibition at 3.12 to 50 ug/mL after 24 hr by agar disk diffusion method
Bacillus cereus [7] = test: Antibacterial activity against Bacillus cereus MTCC 430 assessed as growth inhibition after 24 hr by agar streak dilution method; settings: MTCC 430, 24 h
Escherichia coli [8] = test: Antibacterial activity against Escherichia coli MTCC 739 assessed as growth inhibition at 3.12 to 50 ug/mL after 24 hr by agar disk diffusion method
Aspergillus niger [9] = test: Antifungal activity against Aspergillus niger MTCC 282 assessed as growth inhibition at 3.12 to 50 ug/mL after 24 hr by agar disk diffusion method
Aspergillus fumigatus [10] = test: Antifungal activity against Aspergillus fumigatus MTCC 343 assessed as growth inhibition after 48 hr by agar streak dilution method; settings: MTCC 343, 48 h
Shigella flexneri [11] = test: Antibacterial activity against Shigella flexneri MTCC 1457 assessed as growth inhibition after 24 hr by agar streak dilution method; settings: MTCC 1457, 24 h
Shigella flexneri [12] = test: Antibacterial activity against Shigella flexneri MTCC 1457 assessed as growth inhibition at 3.12 to 50 ug/mL after 24 hr by agar disk diffusion method
[13] = system: Mycobacterium tuberculosis; test: Antimycobacterial activity against Mycobacterium tuberculosis H37Rv assessed as growth inhibition after 12 to 28 days by Lowenstein and Jensen agar dilution method
Salmonella typhi [14] = test: Antibacterial activity against Salmonella enterica subsp. enterica serovar Typhi MTCC 733 assessed as growth inhibition after 24 hr by agar streak dilution method; settings: MTCC 733, 24 h
[15] = system: Mycobacterium tuberculosis; test: Antimycobacterial activity against Mycobacterium tuberculosis H37Rv assessed as growth inhibition at MIC after 12 to 28 days by Lowenstein and Jensen agar dilution method
Staphylococcus aureus [16] = test: Antibacterial activity against Staphylococcus aureus MTCC 96 assessed as growth inhibition at 3.12 to 50 ug/mL after 24 hr by agar disk diffusion method
Klebsiella pneumoniae [17] = test: Antibacterial activity against Klebsiella pneumoniae MTCC 109 assessed as growth inhibition after 24 hr by agar streak dilution method; settings: MTCC 109, 24 h
Pseudomonas aeruginosa [18] = test: Antibacterial activity against Pseudomonas aeruginosa MTCC 741 assessed as growth inhibition after 24 hr by agar streak dilution method; settings: MTCC 741, 24 h
Candida albicans [19] = test: Antifungal activity against Candida albicans MTCC 183 assessed as growth inhibition after 48 hr by agar streak dilution method; settings: MTCC 183, 48 h
Aspergillus niger [20] = test: Antifungal activity against Aspergillus niger MTCC 282 assessed as growth inhibition after 48 hr by agar streak dilution method; settings: MTCC 282, 48 h
Aspergillus clavatus [21] = test: Antifungal activity against Aspergillus clavatus MTCC 1323 assessed as growth inhibition after 48 hr by agar streak dilution method; settings: MTCC 1323, 48 h
Staphylococcus aureus [22] = test: Antibacterial activity against Staphylococcus aureus MTCC 96 assessed as growth inhibition after 24 hr by agar streak dilution method; settings: MTCC 96, 24 h
Proteus vulgaris [23] = test: Antibacterial activity against Proteus vulgaris MTCC 1771 assessed as growth inhibition at 3.12 to 50 ug/mL after 24 hr by agar disk diffusion method
Bacillus cereus [24] = test: Antibacterial activity against Bacillus cereus MTCC 430 assessed as growth inhibition at 3.12 to 50 ug/mL after 24 hr by agar disk diffusion method
Klebsiella pneumoniae [25] = test: Antibacterial activity against Klebsiella pneumoniae MTCC 109 assessed as growth inhibition at 3.12 to 50 ug/mL after 24 hr by agar disk diffusion method
Candida albicans [26] = test: Antifungal activity against Candida albicans MTCC 183 assessed as growth inhibition at 3.12 to 50 ug/mL after 24 hr by agar disk diffusion method
Escherichia coli [27] = test: Antibacterial activity against Escherichia coli MTCC 739 assessed as growth inhibition after 24 hr by agar streak dilution method; settings: MTCC 739, 24 h

Compound | MIC (Proteus vulgaris [1]) | MIC [2] | inhibition zone (IZ) (Pseudomonas aeruginosa [3]) | inhibition zone (IZ) (Aspergillus fumigatus [4]) | inhibition zone (IZ) (Aspergillus clavatus [5]) | inhibition zone (IZ) (Salmonella typhi [6]) | MIC (Bacillus cereus [7]) | inhibition zone (IZ) (Escherichia coli [8]) | inhibition zone (IZ) (Aspergillus niger [9]) | MIC (Aspergillus fumigatus [10]) | MIC (Shigella flexneri [11]) | inhibition zone (IZ) (Shigella flexneri [12]) | MIC [13] | MIC (Salmonella typhi [14]) | growth inhibition (GI) [15] | inhibition zone (IZ) (Staphylococcus aureus [16]) | MIC (Klebsiella pneumoniae [17]) | MIC (Pseudomonas aeruginosa [18]) | MIC (Candida albicans [19]) | MIC (Aspergillus niger [20]) | also measured
CC1CC(C)CN(c2nc(-c3ccc(NCC(=O)Nc4ccc(I)cc4)cc3)nc(N3CC(C)CC(C)C3)n2)C1 (configuration not stated) | 25 µg/mL (≈ 38.2 µM) | > 6.25 µg/mL | 24 mm | 16 mm | <10 mm | 17 mm | 50 µg/mL (≈ 76.5 µM) | <10 mm | <10 mm | 50 µg/mL (≈ 76.5 µM) | 50 µg/mL (≈ 76.5 µM) | 20 mm | 250 µg/mL (≈ 382 µM) | 50 µg/mL (≈ 76.5 µM) | 95% | 17 mm | 50 µg/mL (≈ 76.5 µM) | 25 µg/mL (≈ 38.2 µM) | > 50 µg/mL | 50 µg/mL (≈ 76.5 µM) | MIC (Aspergillus clavatus [21]): > 50 µg/mL; MIC (Staphylococcus aureus [22]): 50 µg/mL (≈ 76.5 µM); inhibition zone (IZ) (Proteus vulgaris [23]): 23 mm; inhibition zone (IZ) (Bacillus cereus [24]): 16 mm; inhibition zone (IZ) (Klebsiella pneumoniae [25]): 23 mm; inhibition zone (IZ) (Candida albicans [26]): <10 mm; MIC (Escherichia coli [27]): 50 µg/mL (≈ 76.5 µM)
CC1CC(C)CN(c2nc(-c3ccc(NCC(=O)Nc4nc5ccc(I)cc5s4)cc3)nc(N3CC(C)CC(C)C3)n2)C1 (configuration not stated) | 12.5 µg/mL (≈ 17.6 µM) | > 6.25 µg/mL | 16 mm | <10 mm | 11 mm | 17 mm | 25 µg/mL (≈ 35.2 µM) | 18 mm | <10 mm | > 50 µg/mL | 25 µg/mL (≈ 35.2 µM) | 23 mm | 200 µg/mL (≈ 281 µM) | 50 µg/mL (≈ 70.4 µM) | 96% | 21 mm | 50 µg/mL (≈ 70.4 µM) | 50 µg/mL (≈ 70.4 µM) | 50 µg/mL (≈ 70.4 µM) | 50 µg/mL (≈ 70.4 µM) | MIC (Aspergillus clavatus [21]): 50 µg/mL (≈ 70.4 µM); MIC (Staphylococcus aureus [22]): 12.5 µg/mL (≈ 17.6 µM); inhibition zone (IZ) (Proteus vulgaris [23]): 26 mm; inhibition zone (IZ) (Bacillus cereus [24]): 24 mm; inhibition zone (IZ) (Klebsiella pneumoniae [25]): 12 mm; inhibition zone (IZ) (Candida albicans [26]): 20 mm; MIC (Escherichia coli [27]): 50 µg/mL (≈ 70.4 µM)
CC(=O)Nc1ccc2nc(NC(=O)CNc3ccc(-c4nc(N5CC(C)CC(C)C5)nc(N5CC(C)CC(C)C5)n4)cc3)sc2c1 (configuration not stated) | 6.25 µg/mL (≈ 9.74 µM) | > 6.25 µg/mL | 19 mm | <10 mm | 24 mm | 17 mm | 50 µg/mL (≈ 77.9 µM) | 19 mm | 24 mm | > 50 µg/mL | 50 µg/mL (≈ 77.9 µM) | 13 mm | 50 µg/mL (≈ 77.9 µM) | 50 µg/mL (≈ 77.9 µM) | 98% | 19 mm | 50 µg/mL (≈ 77.9 µM) | 50 µg/mL (≈ 77.9 µM) | 25 µg/mL (≈ 39 µM) | 6.25 µg/mL (≈ 9.74 µM) | MIC (Aspergillus clavatus [21]): 50 µg/mL (≈ 77.9 µM); MIC (Staphylococcus aureus [22]): 50 µg/mL (≈ 77.9 µM); inhibition zone (IZ) (Proteus vulgaris [23]): 26 mm; inhibition zone (IZ) (Bacillus cereus [24]): 17 mm; inhibition zone (IZ) (Klebsiella pneumoniae [25]): 21 mm; inhibition zone (IZ) (Candida albicans [26]): 22 mm; MIC (Escherichia coli [27]): 50 µg/mL (≈ 77.9 µM)
CC1CC(C)CN(c2nc(-c3ccc(NCC(=O)Nc4ccccc4)cc3)nc(N3CC(C)CC(C)C3)n2)C1 (configuration not stated) | 50 µg/mL (≈ 94.7 µM) | > 6.25 µg/mL | 19 mm | <10 mm | <10 mm | <10 mm | 50 µg/mL (≈ 94.7 µM) | <10 mm | <10 mm | 50 µg/mL (≈ 94.7 µM) | 50 µg/mL (≈ 94.7 µM) | <10 mm | 250 µg/mL (≈ 474 µM) | 50 µg/mL (≈ 94.7 µM) | 95% | 11 mm | 50 µg/mL (≈ 94.7 µM) | 50 µg/mL (≈ 94.7 µM) | > 50 µg/mL | 50 µg/mL (≈ 94.7 µM) | MIC (Aspergillus clavatus [21]): > 50 µg/mL; MIC (Staphylococcus aureus [22]): 50 µg/mL (≈ 94.7 µM); inhibition zone (IZ) (Proteus vulgaris [23]): 14 mm; inhibition zone (IZ) (Bacillus cereus [24]): 12 mm; inhibition zone (IZ) (Klebsiella pneumoniae [25]): <10 mm; inhibition zone (IZ) (Candida albicans [26]): <10 mm; MIC (Escherichia coli [27]): 50 µg/mL (≈ 94.7 µM)
CC1CC(C)CN(c2nc(-c3ccc(NCC(=O)Nc4ccc(F)cc4)cc3)nc(N3CC(C)CC(C)C3)n2)C1 (configuration not stated) | 50 µg/mL (≈ 91.6 µM) | > 6.25 µg/mL | 27 mm | 22 mm | 13 mm | 21 mm | 25 µg/mL (≈ 45.8 µM) | 20 mm | 18 mm | 50 µg/mL (≈ 91.6 µM) | 12.5 µg/mL (≈ 22.9 µM) | 25 mm | 25 µg/mL (≈ 45.8 µM) | 25 µg/mL (≈ 45.8 µM) | 97% | 20 mm | 50 µg/mL (≈ 91.6 µM) | 12.5 µg/mL (≈ 22.9 µM) | 50 µg/mL (≈ 91.6 µM) | 50 µg/mL (≈ 91.6 µM) | MIC (Aspergillus clavatus [21]): 50 µg/mL (≈ 91.6 µM); MIC (Staphylococcus aureus [22]): 12.5 µg/mL (≈ 22.9 µM); inhibition zone (IZ) (Proteus vulgaris [23]): 16 mm; inhibition zone (IZ) (Bacillus cereus [24]): 22 mm; inhibition zone (IZ) (Klebsiella pneumoniae [25]): 21 mm; inhibition zone (IZ) (Candida albicans [26]): 15 mm; MIC (Escherichia coli [27]): 25 µg/mL (≈ 45.8 µM)
CC1CC(C)CN(c2nc(-c3ccc(NCC(=O)Nc4ccc(Cl)cc4)cc3)nc(N3CC(C)CC(C)C3)n2)C1 (configuration not stated) | 50 µg/mL (≈ 88.9 µM) | > 6.25 µg/mL | 26 mm | 14 mm | <10 mm | 18 mm | 50 µg/mL (≈ 88.9 µM) | 12 mm | <10 mm | 50 µg/mL (≈ 88.9 µM) | 12.5 µg/mL (≈ 22.2 µM) | 24 mm | 25 µg/mL (≈ 44.5 µM) | 50 µg/mL (≈ 88.9 µM) | 98% | 18 mm | 50 µg/mL (≈ 88.9 µM) | 25 µg/mL (≈ 44.5 µM) | > 50 µg/mL | 50 µg/mL (≈ 88.9 µM) | MIC (Aspergillus clavatus [21]): > 50 µg/mL; MIC (Staphylococcus aureus [22]): 25 µg/mL (≈ 44.5 µM); inhibition zone (IZ) (Proteus vulgaris [23]): 21 mm; inhibition zone (IZ) (Bacillus cereus [24]): 13 mm; inhibition zone (IZ) (Klebsiella pneumoniae [25]): 21 mm; inhibition zone (IZ) (Candida albicans [26]): <10 mm; MIC (Escherichia coli [27]): 50 µg/mL (≈ 88.9 µM)
